Read-outs that look alike come from different tables or passages of the source.
How the values were obtained:
3D7 = test: Cross-resistance EC50 assay, 3D7 parent / sensitive strain; assay type: cell-based; conditions: Plasmodium falciparum
Text: Multidrug resistance alleles, including mutations in P. falciparum chloroquine resistance transporter (pfcrt) and P. falciparum multi-drug resistance transporter 1 (pfmdr1) are very common in field isolates. Therefore, we sought to assess the degree to which pre-existing resistance alleles would contribute to a loss of potency for this diverse collection of small molecule compounds. Fifteen clones derived from three main parent lines were chosen to maximize diversity in mutated pathways and genetic backgrounds, thus representing the variety of resistance seen in the field: 3D7 (ref. [23]), W2 (ref. [24]) or Dd2 (ref. [25]). The 3D7 line originates from the clone of a Netherlands clinical isolate strain[23][26] and is generally considered to be drug sensitive, though it does convey resistance to sulfadoxine. Conversely, W2 (ref. [24], [27]) and Dd2 (ref. [25]) are multi-drug-resistant lines originating from the Indochina III/CDC isolate, which contain point mutations in pfcrt as well as amplifications in pfmdr1 and GTP cyclohydrolase.
To evaluate potential overlapping activity against known antimalarial drug targets, we performed dose-response studies with each compound against our assembled set of drug-resistant lines and their corresponding parents, in an asexual blood stage proliferation assay (Table 1). Comparisons were made to the drug-sensitive strain 3D7 when a parent was unavailable (TM90C2A, W2 and Dd2). As laboratories conducted EC50 assays with different strains and protocols, all comparisons were made between assays from the same laboratory and under the same assay conditions. Compounds displaying >5-fold EC50 shifts relative to the parent or sensitive strain were flagged as having potentially non-novel targets. Average fold shifts per strain ranged from 0.82 to 2.34, with a median of 1.23 indicating there was not common resistance to any one resistant clone. No resistance patterns were observed when classifying the compounds based on chemical structure, but this was not surprising given the diversity of compounds chosen. On the other hand, given that these confirmed compounds were derived from larger unconfirmed hit lists to which some filtration criteria may have been applied (for example, elimination of obvious dihydrofolate reductase inhibitors[32]), some[10][11][12][13] pre-existing bias may exist in the set.
The 48-h assay was carried out in a 96-well format following standard methods using the ^3H-hypoxanthine incorporation assay. The raw EC50 values corresponding to this assay can be found in Supplementary Data 3. Briefly, this assay relies on the parasite incorporation of labelled hypoxanthine that is proportional to P. falciparum growth. A culture of parasitized RBCs (0.5% parasitemia with a percentage of ring stage higher than 70% of total parasitemia, 2.0% haematocrit) in RPMI-1640, […] and 5 μM hypoxanthine was exposed to drug serial dilutions. Plates were incubated for 24 h at 37 °C, 5% CO2, 5% O2 and 90% N2. After 24 h of incubation, ^3H-hypoxanthine was added and plates were incubated for an additional 24-h period. After that, parasites were harvested on a glass fibre filter using a TOMTEC Cell Harvester 96. Filters were dried and melt-on scintillator sheets were used to determine the incorporation of ^3H-hypoxanthine. Radioactivity was measured using a microbeta counter. Data were normalized using the incorporation of the positive (parasitized RBCs without drug) and negative (same culture with artesunate at 2 μM) controls. All assays were conducted in triplicate using three independently grown cultures, and EC50 values were determined using the XLfit add-in module for Excel (version 2.3.1) from Grafit (version 5.3.1.3), where parameter h is the assay hill slope, x is the compound concentration and y is the inhibition of growth effect. The XLfit equation is: […]
Alternatively, a SYBR Green-based proliferation approach was used for the 72-h assay, as previously described. […]

[1] = test system: Stage 5 gametocytes from P. falciparum NF54; test: Late-stage (stage V) gametocyte survival assay, MitoTracker; assay type: cell-based, Plasmodium falciparum; conditions: for EC50: Plasmodium falciparum, P. falciparum NF54, 72 h, read-out: Stage 5 Gametocyte EC50; for EC50 fold shift compared to asexual stage: Stage 5 Gametocyte EC50: gametocyte EC50 / 3D7 EC50
Experimental: The second assay was a late-stage (stage V) gametocyte survival assay, which predicts transmission-blocking activity. […] Positive and negative control compounds included puromycin (0.61±0.11 μM) and atovaquone (> 12.50 μM), respectively.
To test sexual-stage activity, compounds were tested against late-stage gametocytes using a MitoTracker fluorescent-based assay. Specifically, synchronized stage V gametocytes were incubated with compound for 72 h. MitoTracker Red CMXRos (Life Technologies) was added to each well (final concentration: 500 nM) together with saponin to lyse the RBCs. Each plate was then imaged with an Operetta High Content Imaging System (Perkin Elmer) for fluorescence (590–640 nm). Varying levels of compound concentration were used (1.25 μM or 12.5 μM) due to the stock concentration supplied.
The gametocytocidal activity was measured using high-content image analysis software (Harmony, Perkin Elmer). The readout was based on number of metabolically active gametocytes per well.

P. falciparum = test: Rate of killing (parasite viability) assay; assay type: cell-based, Plasmodium falciparum; conditions: profile compared with chloroquine, pyrimethamine, atovaquone; 48 h treatment
Experimental: To identify whether selection success could be predicted by compound speed of action, and to gain a greater insight into the potential mechanisms of action, assays were performed to test the killing rate (Supplementary Data 1)[33]. To quantify the killing rate, viability time-course profiles for each compound were compared with antimalarials known to have fast (chloroquine), moderate (pyrimethamine) or slow (atovaquone) rate of action. These rates were then compared with other compound characteristics, including cross-resistance profile, selection success, potency and structural characteristics to identify any possible trends. […] One compound's rate of killing, MMV666080, was unidentifiable due to compound availability. No correlation was seen between compound structure and speed of action. Additionally, there was no correlation found between killing rate and compound potency against 3D7, nor between potency and selection success (Supplementary Fig. 2).
Rate of killing was determined for each compound following a previously described methodology, which uses the invasion of fresh erythrocytes as surrogate of parasite viability. Briefly, parasites were treated with compounds for 48 h. Compound was washed out and fresh-labelled erythrocytes added to the treated parasites. Double stained erythrocytes (RBC label plus parasite DNA label) were quantified and per cent of survival determined.

[2] = SYBR green 72 hour assay, asynchronized parasites, 96-well or 1536-well format, 3D7 parent, read-out: 3D7 (PARENT) EC50 (µM) Average EC50
[3] = SYBR green 72 hour assay, synchronized parasites, 384-well format, strain 3D7 (parent), read-out: 3D7 (PARENT) Average EC50
[4] = hypoxanthine 48-hour assay, synchronized parasites, 96-well format, strain 3D7 (parent), read-out: 3D7 (PARENT) Average EC50
[5] = hypoxanthine 48-hour assay, synchronized parasites, 96-well format, strain 3D7-C9-WT (parent of PfATP4 Mut3), read-out: 3D7-C9-WT (PARENT) Average EC50
[6] = SYBR green 72 hour assay, synchronized parasites, 384-well format, 3D7 parent, read-out: 3D7 (PARENT) Average EC50

| SMILES | EC50 (3D7; [2]) [µM] | EC50 (3D7; [3]) [µM] | EC50 (3D7; [4]) [µM] | EC50 (3D7; [5]) [µM] | EC50 [1] [nM] | EC50 fold shift compared to asexual stage: Stage 5 Gametocyte EC50 [1] | Killing Rate (P. falciparum) | EC50 (3D7; [6]) [µM] |
| --- | --- | --- | --- | --- | --- | --- | --- | --- |
| CCN(CC)CCn1c(=N)n(CC(O)c2ccc(Cl)c(Cl)c2)c2ccccc21.Cl (centres unmarked) [MMV000248] | 0.138 | 0.236 | 0.308 | 0.399 | 1600 | 5.23 | CQ (fast) | – |
| Cc1cc(Nc2ccc(OCc3ccccc3)cc2)nc2cc(O)ccc12 [MMV007181] | 0.086 | 0.15 | 0.343 | 0.183 | 805 | 2.33 | PYR/CQ (moderate) | – |
| CN(C)Cc1ccc(-c2cc3c(-c4ccc(CN(C)C)cc4)ccnc3[nH]2)cc1.O=C(O)C(F)(F)F [MMV022224] | 0.224 | 0.242 | 0.343 | 0.356 | 2330 | – | CQ (fast) | – |
| CN1CCN(c2ccc(Nc3c4ccccc4nc4ccccc34)cc2)CC1 [MMV006172] | 0.126 | 0.046 | 0.089 | 0.097 | 919 | – | CQ (fast) | – |
| Nc1ccc(-c2nc3cc(Cc4ccc5[nH]c(-c6ccc(N)cc6)nc5c4)ccc3[nH]2)cc1 [MMV665943] | 0.034 | 0.369 | 0.316 | 0.198 | 407 | 1.29 | CQ (fast) | – |
| c1cc(-c2cnc3ccc(-c4ccc(N5CCOCC5)cc4)nn23)ccn1 [MMV668311] | 0.014 | 0.033 | 0.05 | 0.018 | 879 | 18.31 | CQ (fast) | – |
| OC(CNC1CCCCC1)Cn1c2ccccc2c2ccccc21 (centres unmarked) [MMV009063] | 0.281 | 0.464 | 0.785 | – | > 1250 | > 1.5 | CQ (fast) | – |
| O=C(Nc1ccc(Cl)c(Cl)c1)Nc1ccc(Cl)c(Cl)c1 [MMV665852] | 1.55 | 1.16 | 1.24 | – | > 1250 | – | CQ (fast) | – |
| Nc1ccc(-c2nc3cc(Oc4ccc(Oc5ccc6[nH]c(-c7ccc(N)cc7)nc6c5)cc4)ccc3[nH]2)cc1 [MMV011895] | 0.24 | 0.169 | 0.158 | – | > 12500 | > 78 | CQ (fast) | – |
| COc1ccc(NC(=O)N2CCCCN3[C@H](CN)[C@H](c4ccc(C#Cc5ccccc5)cc4)[C@@H]3C2)cc1 [BRD1095] | 0.00215 | – | – | – | 259 | 6.48 | PYR/CQ (moderate) | 0.022 |
| CCCN(CCC)CC(O)COc1ccccc1C(=O)Nc1ccccc1 (centres unmarked) [MMV006455] | 0.148 | 2.43 | 0.529 | – | > 1250 | > 2.3 | CQ (fast) | – |
| COCCNCC(O)Cn1c2ccc(Cl)cc2c2cc(Cl)ccc21 (centres unmarked) [MMV019017] | 0.537 | 0.763 | 0.62 | – | > 1250 | > 2.6 | CQ (fast) | – |
| Cc1c(C)n(Cc2ccc(F)cc2)c2ccc(C(=O)NCc3ccco3)cc12 [MMV008149] | 1.06 | 0.357 | 0.773 | 2.74 | > 1250 | 1.62 | ATQ (slow) | – |
| CN(C)S(=O)(=O)c1cc(-c2ccc3nccc(-c4cccc(S(N)(=O)=O)c4)c3c2)cnc1N [MMV024038] | 0.764 | 0.217 | 0.174 | 0.258 | 317 | 1.39 | PYR/CQ (moderate) | – |
| COc1ccccc1CNC(=O)CCn1c(=O)[nH]c2ccsc2c1=O [MMV019066] | 0.007 | 0.168 | 1.67 | 2.17 | > 1250 | > 0.7 | ATQ (slow) | – |
| Cc1ccc(Cn2c(N3CCC(C(=O)NCc4cccs4)CC3)nc3ccccc32)cc1 [MMV007564] | 0.867 | 0.681 | 0.578 | 0.477 | 2210 | 3.81 | PYR/CQ (moderate) | – |
| COc1ccc2c3c([nH]c2c1)[C@H](CO)N(C(C)=O)CC31CCN(C(=O)Nc2ccccc2F)CC1 [MMV673482] | 0.039 | – | 0.232 | 0.234 | – | – | PYR (moderate) | 0.127 |
| CC(NCc1ccccc1)c1cc(Cl)ccc1O (centres unmarked) [MMV665789] | 0.17 | 1 | 1.25 | 1.25 | > 1250 | > 1 | PYR (moderate) | – |
| O=C(NC(c1ccccc1)c1ccc2cccnc2c1O)c1ccccc1 (centres unmarked) [MMV666080] | 0.723 | 0.682 | 0.845 | 3.92 | 7210 | 8.53 | – | – |
| CN(C)CCCN(C)C(=O)C1Cc2cc(-c3ccccc3)ccc2N1S(=O)(=O)c1ccccc1 (centres unmarked) [MMV028895] | 0.625 | 0.049 | 0.081 | 0.052 | – | – | ATQ (slow) | – |
